pIC50: −log10 of the molar value. Where a name gives a salt, the structure may show the parent alone.
Test system: Phospho-EGFR in H1975 cell line
Test: HTRF Phospo EGFR Assay (Cellular)
Type: cell-based
Conditions: Homo sapiens, NCI-H1975; H1975 cells, 6 hours compound incubation in starving medium, HTRF phospho-EGFR readout
Description: HTRF Phospo EGFR Assay (Cellular)
H1975 cell line was obtained from American Type Culture Collection (Manassas, Va., USA). Cells were maintained at 37° C., 5% CO2 in complete Media RPMI 1640 without phenol red containing 0.3 mg/ml glutamine, 100 IU/ml penicillin, and […] (Gibco) supplemented with 10% fetal bovine serum (FBS) (Gibco). Compounds were diluted into starving medium RPMI 1640 Media without phenol red containing 0.3 mg/ml glutamine, 100 IU/ml penicillin, and […] (Gibco).
Cells were cultured overnight in a 384-well white plate (8000 cells/well) using 8 μl of complete medium/well. Cells were washed two times with 20 μl of starving medium. Media was removed by tapping plates on tissue and subsequently 8 μl of fresh starving medium/well was added. Then 4 μl/well of the 3× compound solution, containing a half-log dilution series of the compound or DMSO in starving medium, were added to the cells. After 6 hours at 37° C., 5% CO2 cells were lysed by adding to the compound mix 4 μl/well of the supplemented lysis buffer, followed by incubation for 30 min at room temperature with shaking. Lysates were stored at −20° C. over night. The following day plates were thawed and 2 μl of anti-Phospho-EGFR Cryptate and 2 μl of anti-Phospho-EGFR-d2 antibody solutions prepared in the detection buffer were added. The plates were then incubated for at least 4 h at room temperature before reading the fluorescence emission at 620 and 665 nm using PHERAstar FX plate reader (BMG Labtech).

`O=C(Nc1nccs1)C(c1cc(F)ccc1O)n1cc2cccc(Br)c2n1` (racemic) [Example 15, (2RS)-2-(7-Bromoindazol-2-yl)-2-(5-fluoro-2-hydroxy-phenyl)-N-thiazol-2-yl-acetamide] gave a pIC50 of 9.00.
In the case of `Nc1ccc(C#Cc2ccc3cn(C(C(=O)Nc4ccccn4)c4cc(F)ccc4O)nc3c2F)cn1` (racemic) [Example 7, (2RS)-2-[6-[2-(6-Amino-3-pyridyl)ethynyl]-7-fluoro-indazol-2-yl]-2-(5-fluoro-2-hydroxy-phenyl)-N-(2-pyridyl)acetamide], the pIC50 was 8.15.
Molecule `O=C(Nc1nccs1)C(c1cc(F)ccc1O)n1cc2ccccc2n1` (racemic) [Example 6, (2RS)-2-(5-Fluoro-2-hydroxy-phenyl)-2-indazol-2-yl-N-thiazol-2-yl-acetamide] has a pIC50 of 7.24.
`O=C(Nc1nccs1)C(c1cc(F)ccc1O)n1cc2cccc(-c3ccccc3)c2n1` (racemic) [Example 16, (2RS)-2-(5-Fluoro-2-hydroxy-phenyl)-2-(7-phenylindazol-2-yl)-N-thiazol-2-yl-acetamide] gave a pIC50 of 7.26.
`O=C(Nc1nccs1)C(c1cccc(F)c1)n1cc2ccc(C#Cc3cccnc3)cc2n1` (racemic) [Example 14, (2RS)-2-(3-Fluorophenyl)-2-[6-[2-(3-pyridyl)ethynyl]indazol-2-yl]-N-thiazol-2-yl-acetamide] gave a pIC50 of 7.66.
In the case of `Nc1ccc2cn(C(C(=O)Nc3nccs3)c3ccccc3)nc2c1` (racemic) [Example 3, (2RS)-2-(6-Aminoindazol-2-yl)-2-phenyl-N-thiazol-2-yl-acetamide], the pIC50 was 6.30.
For `O=C(Nc1nccs1)C(c1ccccc1)n1cc2ccc(O)cc2n1` (racemic) [Example 5, (2RS)-2-(6-Hydroxyindazol-2-yl)-2-phenyl-N-thiazol-2-yl-acetamide], the pIC50 was 6.70.
Molecule `Nc1ccc(C#Cc2ccc3cn(C(C(=O)Nc4nccs4)c4ccccc4)nc3c2F)cn1` (racemic) [Example 11, (2RS)-2-[6-[2-(6-Amino-3-pyridyl)ethynyl]-7-fluoro-indazol-2-yl]-2-phenyl-N-thiazol-2-yl-acetamide] has a pIC50 of 7.28.
`O=C(Nc1nccs1)C(c1ccccc1)n1cc2ccc(-c3ccc(N4CCNCC4)nc3)cc2n1` (racemic) [Example 20, (2RS)-2-Phenyl-2-[6-(6-piperazin-1-yl-3-pyridyl)indazol-2-yl]-N-thiazol-2-yl-acetamide hydrochloride] showed a pIC50 of 7.41.
Molecule `O=C(Nc1nccs1)C(c1ccccc1)n1cc2ccc(-c3ccc(N4CCNCC4)nc3)c(Cl)c2n1` (racemic) [Example 8, (2RS)-2-[7-Chloro-6-(6-piperazin-1-yl-3-pyridyl)indazol-2-yl]-2-phenyl-N-thiazol-2-yl-acetamide] has a pIC50 of 7.49.
`O=C(Nc1ccccn1)C(c1ccccc1)n1cc2ccc(-c3ccc(N4CCNCC4)nc3)c(F)c2n1` (racemic) [Example 9, (2RS)-2-[7-Fluoro-6-(6-piperazin-1-yl-3-pyridyl)indazol-2-yl]-2-phenyl-N-(2-pyridyl)acetamide] was tested, and the pIC50 was 6.90.
Molecule `O=C(Nc1nccs1)C(c1cc(F)ccc1O)n1cc2cccc(N3CCOCC3)c2n1` (racemic) [Example 17, (2RS)-2-(5-Fluoro-2-hydroxy-phenyl)-2-(7-morpholinoindazol-2-yl)-N-thiazol-2-yl-acetamide] has a pIC50 of 7.22.
For `O=C(Nc1nccs1)C(c1ccccc1)n1cc2ccc(-c3ccc(N4CCNCC4)nc3)c(F)c2n1` (racemic) [Example 12, (2RS)-2-[7-Fluoro-6-(6-piperazin-1-yl-3-pyridyl)indazol-2-yl]-2-phenyl-N-thiazol-2-yl-acetamide hydrochloride], the pIC50 was 7.51.
Work on `COc1ccc2cn(C(C(=O)Nc3nccs3)c3ccccc3)nc2c1` (racemic) [Example 4, (2RS)-2-(6-Methoxyindazol-2-yl)-2-phenyl-N-thiazol-2-yl-acetamide] yielded a pIC50 of 6.27.
Work on `O=C(Nc1ccccn1)C(c1ccccc1)n1cc2ccccc2n1` (racemic) [Example 1, (2RS)-2-Indazol-2-yl-2-phenyl-N-(2-pyridyl)acetamide] yielded a pIC50 of 5.75.
`CCN1CCN(c2ccc(-c3ccc4cn(C(C(=O)Nc5nccs5)c5cccc(F)c5)nc4c3)cn2)CC1` (racemic) [Example 13, (2RS)-2-[6-[6-(4-Ethylpiperazin-1-yl)-3-pyridyl]indazol-2-yl]-2-(3-fluorophenyl)-N-thiazol-2-yl-acetamide] gave a pIC50 of 6.84.
`O=C(Nc1nccs1)C(c1cc(F)ccc1O)n1cc2ccc(Br)cc2n1` (racemic) [Example 18, (2RS)-2-(6-Bromoindazol-2-yl)-2-(5-fluoro-2-hydroxy-phenyl)-N-thiazol-2-yl-acetamide] showed a pIC50 of 7.37.
Molecule `O=C(Nc1nccs1)C(c1cc(F)ccc1O)n1cc2ccc(-c3ccccc3)cc2n1` (racemic) [Example 19, (2RS)-2-(5-Fluoro-2-hydroxy-phenyl)-2-(6-phenylindazol-2-yl)-N-thiazol-2-yl-acetamide] has a pIC50 of 7.48.
In the case of `O=C(Nc1nccs1)C(c1ccccc1)n1cc2ccccc2n1` (racemic) [Example 2, (2RS)-2-Indazol-2-yl-2-phenyl-N-thiazol-2-yl-acetamide], the pIC50 was 7.11.

Reference: US11708354B2, “2-benzopyrazinyl-n-heteroaryl-2-phenyl-acetamide compounds” (Hoffmann-La Roche Inc., priority 2016, dated 2023)
